Assay results as given in patent US10533006B2, “Nitrogen-containing heterocycle and carbocycle derivatives having TrkA inhibitory activity” (Shionogi & Co., Ltd., priority 2016, dated 2020).

What follows are compounds tested against T1, human TrkA (Homo sapiens, UniProt P04629) (assay: Human TrkA inhibition assay). Settings: human TrkA phosphorylation inhibition, ATP 500 μmol/L; read-out: IC50_nM.
T1 construct: purchased Lifetechnologies PV3144
Assay type: biochemical
Experimental: Seven point five L per well of human TrkA (PV3144, Lifetechnologies, final concentration: 1 nmol/L) suspended in the assay buffer (100 mmol/L 4-(2-hydroxyethyl)-1-piperazineethanesulfonic acid (HEPES), 10 mmol/L magnesium chloride, 0.003 vol % Brij-35, 0.004 vol % Tween20 and 1 mmol/L dithiothreitol (DTT)) was applied in a 384 well plate and the plate was pre-incubated for 15 min at room temperature with 0.4 μL of each compound (final concentration: 200 μmol/L-0.1 nM) dissolved in DMSO. Then, fluorescent substrate (FL-peptide 27, 760424, PerkinElmer, final concentration: 1.5 μmol/L) and ATP (final concentration 500 μmol/L) dissolved in the assay buffer was added in each well. After the incubation of 120 min at 37° C., fifteen μL of termination buffer (100 mmol/L HEPES, 40 mmol/L ethylenediaminetetraacetic acid (EDTA), 10 mmol/L magnesium chloride, 0.003 vol % Brij-35, 0.004 vol % Tween20, 1 mmol/L DTT and 0.16 vol % Coating Reagent 3) was added in each well to stop the enzyme reaction. Fluorescent intensities (FI) of phosphorylated and non-phosphorylated fluorescent substrates were measured by LabChip EZReader II (Caliper LifeSciences, Inc.), and conversion ratio (CR) was calculated by the following formula-1. The CR in the well applied with DMSO alone was used as a negative control and the CR in the well without applying TrkA was used as a positive control. The inhibitory effect of each compound on TrkA phosphorylation was calculated by the following formula-2. CR (%)=(FI of phosphorylated substrate/(FI of phosphorylated substrate+FI of non-phosphorylated substrate))×100 (Formula-1) Phosphorylation inhibition (%)=(1−(CR with compound treatment−CR of positive control)/(CR of negative control−CR of positive control))×100 (Formula-2)
IC50 values (nmol/L) were determined by the logistic regression using the inhibition data in 10 points of 3-fold dilution series at a compound concentration range of 2 μmol/L to 0.1 nmol/L, or 15 points of 3-fold dilution series at the range of 200 μmol/L to 0.04 nmol/L.

T1 sequence (P04629 33-796): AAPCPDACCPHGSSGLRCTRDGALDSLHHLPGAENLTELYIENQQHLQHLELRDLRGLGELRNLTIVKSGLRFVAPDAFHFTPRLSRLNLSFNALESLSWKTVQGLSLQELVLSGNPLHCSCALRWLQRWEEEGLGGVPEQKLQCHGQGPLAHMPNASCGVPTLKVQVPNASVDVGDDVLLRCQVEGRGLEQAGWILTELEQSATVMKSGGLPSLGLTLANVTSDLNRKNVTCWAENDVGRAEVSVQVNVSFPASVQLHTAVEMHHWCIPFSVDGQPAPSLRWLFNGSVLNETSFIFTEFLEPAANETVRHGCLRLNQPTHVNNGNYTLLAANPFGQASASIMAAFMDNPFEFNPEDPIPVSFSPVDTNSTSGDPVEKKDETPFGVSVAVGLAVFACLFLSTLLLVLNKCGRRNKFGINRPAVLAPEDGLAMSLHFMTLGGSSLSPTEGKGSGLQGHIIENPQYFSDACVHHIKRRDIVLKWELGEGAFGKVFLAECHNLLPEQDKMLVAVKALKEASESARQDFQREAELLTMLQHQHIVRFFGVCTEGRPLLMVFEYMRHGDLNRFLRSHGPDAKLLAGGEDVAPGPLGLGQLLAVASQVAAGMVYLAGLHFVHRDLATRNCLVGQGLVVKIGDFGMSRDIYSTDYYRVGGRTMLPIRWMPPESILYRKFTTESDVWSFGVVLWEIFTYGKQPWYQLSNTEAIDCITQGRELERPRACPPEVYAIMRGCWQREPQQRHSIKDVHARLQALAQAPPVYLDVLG

IC50	SMILES
< 100 nM	COCCN1C[C@@H](NC(=O)Nc2c(C)c(-c3cnc4c(c3)c(CO)nn4C)nn2-c2ccccc2)[C@H](c2ccccc2)C1 (racemic) [Compound I-65]
> 1000 nM	Cc1c(-c2cnn(C)c2)nn(-c2ccccc2)c1NC(=O)N[C@@H]1CN(Cc2ccccc2)C[C@H]1c1ccnc(F)c1 (racemic) [Compound I-18]
< 100 nM	CNC(=O)c1cc(-c2nn(-c3ccccc3)c(NC(=O)N[C@@H]3CN(CCOC)C[C@H]3c3ccccc3)c2C)cnc1OC (racemic) [Compound I-53]
< 100 nM	Cc1c(-c2cnn(C)c2)nn(-c2ccccc2)c1NC(=O)N[C@@H]1CN(CCOC(F)(F)F)C[C@H]1c1ccnc(F)c1 (racemic) [Compound I-20]
< 100 nM	CNC(=O)c1cc(-c2nn(-c3ccccc3)c(NC(=O)N[C@@H]3CN(CCOC)C[C@H]3c3ccccc3)c2C)cnc1OC(F)F (racemic) [Compound I-128]
< 100 nM	COCCN1C[C@@H](NC(=O)Nc2c(C)c(-c3cnn(C)c3)nn2-c2ccccc2)[C@H](c2cc(F)nc(F)c2)C1 (racemic) [Compound I-7]
< 100 nM	CCN1CCC(NC(=O)c2ccc(-c3nn(-c4ccccc4)c(NC(=O)N[C@@H]4CN(CCOC)C[C@H]4c4ccccc4)c3C)cn2)CC1 (racemic) [Compound I-50]
< 100 nM	COCCN1C[C@@H](NC(=O)Nc2c(C)c(-c3cnc4ccnn4c3)nn2-c2ccccc2)[C@H](c2ccccc2)C1 (racemic) [Compound I-40]
< 100 nM	CCNC(=O)c1cc(-c2nn(-c3ccccc3)c(NC(=O)N[C@@H]3CN(CCOC)C[C@H]3c3ccccc3)c2C)cnc1OCCOC (racemic) [Compound I-130]
< 100 nM	COCCN1C[C@@H](NC(=O)Nc2c(C)c(-c3cnn(C)c3)nn2-c2ccccc2)[C@H](c2cc(F)ncc2F)C1 (racemic) [Compound I-98]
< 100 nM	COCC[C@@H]1C[C@@H](NC(=O)Nc2c(C)c(-c3cnc4c(c3)oc(=O)n4C)nn2-c2ccccc2)[C@H](c2ccnc(F)c2)N1C [Compound I-170]
< 100 nM	COCCN1C[C@@H](NC(=O)Nc2c(C)c(-c3cnc(OC)c(C(=O)NC(=O)N(C)C)c3)nn2-c2ccccc2)[C@H](c2ccccc2)C1 (racemic) [Compound I-158]
< 100 nM	COCCN1C[C@@H](NC(=O)Nc2c(C)c(-c3cc(C(=O)NO)c(=O)n(C)c3)nn2-c2ccccc2)[C@H](c2ccccc2)C1 (racemic) [Compound I-139]
< 100 nM	COCCN1C[C@@H](NC(=O)Nc2c(C)c(-c3ccc4c(cnn4C)c3)nn2-c2ccccc2)[C@H](c2ccc(F)c(F)c2)C1 [Compound I-6]
< 100 nM	COCCN1C[C@@H](NC(=O)Nc2c(C)c(-c3cc(C(=O)NC(C)(C)CO)c(=O)n(C)c3)nn2-c2ccccc2)[C@H](c2ccccc2)C1 (racemic) [Compound I-115]
< 100 nM	COCCN1C[C@@H](NC(=O)Nc2c(C)c(-c3ccnc(N=S(C)(C)=O)c3)nn2-c2ccccc2)[C@H](c2ccccc2)C1 (racemic) [Compound I-96]
< 100 nM	COCCN1C[C@@H](NC(=O)Nc2c(C)c(-c3ccnc(C(=O)NC4COC4)c3)nn2-c2ccccc2)[C@H](c2ccccc2)C1 (racemic) [Compound I-69]
< 100 nM	CCNC(=O)c1cc(-c2nn(-c3ccccc3)c(NC(=O)N[C@@H]3CN(CCOC)C[C@H]3c3ccccc3)c2C)cnc1OCF (racemic) [Compound I-132]
< 100 nM	Cc1c(-c2ccc3c(cnn3C)c2)nn(-c2ccccc2)c1NC(=O)N[C@@H]1C[C@@H](CCOC(F)(F)F)C[C@H]1c1ccc(F)c(F)c1 [Compound I-11]
< 100 nM	COCCN1C[C@@H](NC(=O)Nc2c(C)c(-c3cncc(N=S(C)(C)=O)c3)nn2-c2ccccc2)[C@H](c2ccccc2)C1 (racemic) [Compound I-106]
< 100 nM	COCCN1C[C@@H](NC(=O)Nc2c(C)c(-c3cnn(C)c3)nn2-c2ccccc2)[C@H](c2ccnc(Cl)c2)C1 (racemic) [Compound I-1]
< 100 nM	COCCN1C[C@@H](NC(=O)Nc2c(C)c(-c3cnc4c(c3)c(C)nn4C)nn2-c2ccccc2)[C@H](c2ccccc2)C1 (racemic) [Compound I-89]
< 100 nM	CNC(=O)c1cc(-c2nn(-c3ccccc3)c(NC(=O)N[C@@H]3C[C@@H](CCOC)N(C)[C@H]3c3ccnc(F)c3)c2C)cnc1OC [Compound I-176]

IC50	SMILES
< 100 nM	COCCN1C[C@@H](NC(=O)Nc2c(C)c(-c3cnc4nccn4c3)nn2-c2ccccc2)[C@H](c2ccccc2)C1 (racemic) [Compound I-30]
> 1000 nM	COCCN1C[C@H](NC(=O)Nc2c(C)c(-c3cnc4c(cnn4C)c3)nn2-c2ccccc2)[C@@H](c2ccnc(F)c2)C1 [Compound I-160]
< 100 nM	COCCN1C[C@@H](NC(=O)Nc2c(C)c(-c3cnc(OC)c(C(=O)NC4CCC(F)(F)CC4)c3)nn2-c2ccccc2)[C@H](c2ccccc2)C1 (racemic) [Compound I-83]
< 100 nM	CCN1CCC(NC(=O)c2cc(-c3nn(-c4ccccc4)c(NC(=O)N[C@@H]4CN(CCOC)C[C@H]4c4ccccc4)c3C)ccn2)CC1 (racemic) [Compound I-43]
< 100 nM	COCCN1C[C@@H](NC(=O)Nc2c(C)c(-c3cnc(OC)c(C(=O)NC#N)c3)nn2-c2ccccc2)[C@H](c2ccccc2)C1 (racemic) [Compound I-146]
< 100 nM	COCCN1C[C@@H](NC(=O)Nc2c(C)c(-c3ccnc(C(=O)N[C@@H]4CCCOC4)c3)nn2-c2ccccc2)[C@H](c2ccccc2)C1 (mixture of isomers) [Compound I-72]
< 100 nM	CCNC(=O)c1cc(-c2nn(-c3ccccc3)c(NC(=O)N[C@@H]3CN(CCOC)C[C@H]3c3ccccc3)c2C)cnc1OC(F)F (racemic) [Compound I-134]
< 100 nM	COCCN1C[C@@H](NC(=O)Nc2c(C)c(-c3cnn(C)c3)nn2-c2ccccc2)[C@H](c2ccnc(F)c2F)C1 (racemic) [Compound I-162]
< 100 nM	COCCN1C[C@@H](NC(=O)Nc2c(C)c(-c3ccc(C(=O)NCC(F)(F)F)nc3)nn2-c2ccccc2)[C@H](c2ccccc2)C1 (racemic) [Compound I-12]
< 100 nM	COCCN1C[C@@H](NC(=O)Nc2c(C)c(-c3ccnc(C(=O)NC4CCOCC4)c3)nn2-c2ccccc2)[C@H](c2ccccc2)C1 (racemic) [Compound I-29]
< 100 nM	COCCN1C[C@@H](NC(=O)Nc2c(C)c(-c3cnc4cccnc4c3)nn2-c2ccccc2)[C@H](c2ccccc2)C1 (racemic) [Compound I-137]
< 100 nM	COCCN1C[C@@H](NC(=O)Nc2c(C)c(-c3cnc4c(c3)c(C)nn4C)nn2-c2ccccc2)[C@H](c2ccnc(F)c2)C1 (racemic) [Compound I-104]
< 100 nM	COCCN1C[C@@H](NC(=O)Nc2c(C)c(-c3ccnc(C(=O)N(C)C)c3)nn2-c2ccccc2)[C@H](c2ccccc2)C1 (racemic) [Compound I-47]
< 100 nM	COCCN1C[C@@H](NC(=O)Nc2c(C)c(-c3cnc4ncnn4c3)nn2-c2ccccc2)[C@H](c2ccccc2)C1 (racemic) [Compound I-33]
< 100 nM	COCC[C@@H]1C[C@@H](NC(=O)Nc2c(C)c(-c3cnc4c(c3)nnn4C)nn2-c2ccccc2)[C@H](c2ccnc(F)c2)N1C [Compound I-171]
< 100 nM	COCCN1C[C@@H](NC(=O)Nc2c(C)c(-c3ccc(C(=O)NCc4ccccc4)nc3)nn2-c2ccccc2)[C@H](c2ccccc2)C1 (racemic) [Compound I-27]
< 100 nM	COCCOc1ncc(-c2nn(-c3ccccc3)c(NC(=O)N[C@@H]3CN(CCOC)C[C@H]3c3ccccc3)c2C)cc1C(=O)NC1CCOCC1 (racemic) [Compound I-141]
< 100 nM	COCC[C@@H]1C[C@@H](NC(=O)Nc2c(C)c(-c3cc(C)c(=O)n(C)c3)nn2-c2ccccc2)[C@H](c2ccccc2)C1 [Compound I-103]
< 100 nM	COCCN1C[C@@H](NC(=O)Nc2c(C)c(-c3cnc4c(c3)nnn4C)nn2-c2ccccc2)[C@H](c2ccnc(F)c2)C1 (racemic) [Compound I-105]
< 100 nM	CNC(=O)c1cc(-c2nn(-c3ccccc3)c(NC(=O)N[C@@H]3C[C@@H](CCOC)C[C@H]3c3ccnc(F)c3)c2C)cnc1OC [Compound I-145]
< 100 nM	COCCN1C[C@@H](NC(=O)Nc2c(C)c(N3CCc4nn(C)cc4C3)nn2-c2ccccc2)[C@H](c2ccccc2)C1 [Compound I-59]
< 100 nM	COCC[C@@H]1C[C@@H](NC(=O)Nc2c(C)c(-c3cc(C#N)c(=O)n(C)c3)nn2-c2ccccc2)[C@H](c2ccccc2)C1 [Compound I-154]
100 to 1000 nM	COCCN1C[C@@H](NC(=O)Nc2c(C)c(-c3cnn(C)c3)nn2-c2ccccc2)[C@H](c2cc(Cl)nc(Cl)c2)C1 (racemic) [Compound I-4]

Same assay, conditions: human TrkA phosphorylation inhibition, ATP 500 μmol/L; read-out: IC50 value

IC50	SMILES
0.98 nM	COCCN1C[C@@H](NC(=O)Nc2c(C)c(-c3cc(C(=O)NC4CCOCC4)c(=O)n(C)c3)nn2-c2ccccc2)[C@H](c2ccccc2)C1 (racemic) [Compound I-56]
